The test system of series [1] is cellular microtubules in A-10 cells. The series can be described thus: Microtubule depolymerization, indirect immunofluorescence. The format is cell-based. The note with it: for EC50: A-10 cells, 18 h, read-out: EC50 for MT depolymerization in A-10 cells; for effect on cellular microtubules: in words.
Protocol: Evaluation of microtubule inhibition was performed using previously described methods.^22 Indirect immunofluorescence was used to evaluate the effects of the compounds on cellular microtubules as described previously.^38 Briefly, A-10 cells were treated for 18 h with vehicle (DMSO) or a compound, and microtubule effects were evaluated microscopically using β-tubulin antibody. The EC50 was calculated from 3 independent experiments and expressed as the mean±SD.
Series [2] has as its system purified tubulin. Nature of the series: Inhibition of tubulin assembly. The conditions noted are these: read-out: Inhibition tubulin assembly IC50 ± SD. Type of series: biochemical.
Series [3] deals with A431 cancer cells. The series can be described thus: A431 cytotoxicity (cell proliferation). Type of series: cell-based, human.
The subject of series [4] is M6/6 cells (SK-OV-3 expressing Pgp). The series can be described thus: Antiproliferative SRB assay. The note with it: for IC50: read-out: IC50 ± SD in M6/6 cells, SRB, 48 h.
Series [5] deals with chicken embryo chorioallantoic membrane. Nature of the series: Chorioallantoic membrane (CAM) assay of angiogenesis. The conditions noted are these: Gallus gallus, 48 h, read-out: CAM angiogenesis inhibition.
In series [6] the target is PDGFR-β (Homo sapiens (Human), UniProt P09619). The series can be described thus: PDGFR-β kinase inhibition, phosphotyrosine ELISA cytoblot. The format is cell-based. The conditions noted are these: SH-SY5Y cells, phosphotyrosine ELISA. In general terms: ELISA stands for enzyme-linked immunosorbent assay.
Chain of PDGFR-β (P09619 33-1106): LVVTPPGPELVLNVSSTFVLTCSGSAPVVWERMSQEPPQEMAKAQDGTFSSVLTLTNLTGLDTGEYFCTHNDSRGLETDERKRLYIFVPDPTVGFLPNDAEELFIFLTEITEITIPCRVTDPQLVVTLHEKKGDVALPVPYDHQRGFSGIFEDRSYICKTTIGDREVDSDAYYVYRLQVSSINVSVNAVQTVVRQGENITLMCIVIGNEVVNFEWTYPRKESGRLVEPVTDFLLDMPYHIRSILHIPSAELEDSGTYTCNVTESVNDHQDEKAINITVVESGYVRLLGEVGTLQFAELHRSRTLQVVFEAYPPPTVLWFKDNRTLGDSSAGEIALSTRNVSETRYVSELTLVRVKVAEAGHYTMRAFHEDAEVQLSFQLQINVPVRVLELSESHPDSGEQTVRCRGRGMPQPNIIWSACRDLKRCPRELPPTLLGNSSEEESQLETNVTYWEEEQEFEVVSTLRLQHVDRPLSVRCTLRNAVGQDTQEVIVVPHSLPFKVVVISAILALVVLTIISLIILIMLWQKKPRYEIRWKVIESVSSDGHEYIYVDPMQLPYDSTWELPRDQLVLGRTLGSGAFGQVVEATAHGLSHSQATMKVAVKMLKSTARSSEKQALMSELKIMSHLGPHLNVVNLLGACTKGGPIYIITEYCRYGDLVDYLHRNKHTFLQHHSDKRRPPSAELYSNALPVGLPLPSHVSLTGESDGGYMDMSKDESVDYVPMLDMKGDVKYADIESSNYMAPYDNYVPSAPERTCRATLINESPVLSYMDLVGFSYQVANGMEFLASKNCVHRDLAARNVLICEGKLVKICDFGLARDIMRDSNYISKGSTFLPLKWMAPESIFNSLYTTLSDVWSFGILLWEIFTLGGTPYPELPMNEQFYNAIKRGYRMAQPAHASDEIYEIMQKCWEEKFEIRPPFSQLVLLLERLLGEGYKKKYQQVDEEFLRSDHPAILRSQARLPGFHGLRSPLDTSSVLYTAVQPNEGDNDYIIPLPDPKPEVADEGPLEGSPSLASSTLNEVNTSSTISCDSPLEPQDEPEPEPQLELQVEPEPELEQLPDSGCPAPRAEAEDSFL
Protocol: (§1) Cells used were tumor cell lines naturally expressing high levels of EGFR (A431), VEGFR-2 (U251), and PDGFR-β (SH-SYSY). […] The reaction was stopped and cells were permeabilized by quickly removing the media from the cells and adding ice-cold Tris-buffered saline (TBS) containing 0.05% Triton X-100, protease inhibitor cocktail and tyrosine phosphatase inhibitor cocktail. The TBS solution was then removed and cells fixed to the plate for 30 min at 60° C. and further incubation in 70% ethanol for an additional 30 min. Cells were further exposed to block (TBS with 1% BSA) for 1 h, washed, and then a horseradish peroxidase (HRP)-conjugated phosphotyrosine (PY) antibody was added overnight.
Series [7] concerns MDA-435 cells. The series can be described thus: Antiproliferative SRB assay. The conditions noted are these: read-out: IC50 ± SD in MDA-435 cells. Type of series: cell-based. (In general: The SRB assay estimates cell density from bound dye.)
The subject of series [8] is WTβ3 cells (HeLa overexpressing βIII tubulin). The series can be described thus: Antiproliferative SRB assay. The format is cell-based. The conditions noted are these: SRB, 48 h, read-out: IC50 ± SD in WTβ3.
Series [9] relates to SKOV3 cells. The series can be described thus: Antiproliferative SRB assay. Type of series: cell-based. The conditions noted are these: read-out: IC50 ± SD in SKOV3 cells.
For series [10], the target named is EGFR (Homo sapiens (Human), UniProt P00533). Nature of the series: EGFR kinase inhibition, phosphotyrosine ELISA cytoblot. Type of series: cell-based. The note with it: A431 cells.
Chain of EGFR (P00533 25-1210): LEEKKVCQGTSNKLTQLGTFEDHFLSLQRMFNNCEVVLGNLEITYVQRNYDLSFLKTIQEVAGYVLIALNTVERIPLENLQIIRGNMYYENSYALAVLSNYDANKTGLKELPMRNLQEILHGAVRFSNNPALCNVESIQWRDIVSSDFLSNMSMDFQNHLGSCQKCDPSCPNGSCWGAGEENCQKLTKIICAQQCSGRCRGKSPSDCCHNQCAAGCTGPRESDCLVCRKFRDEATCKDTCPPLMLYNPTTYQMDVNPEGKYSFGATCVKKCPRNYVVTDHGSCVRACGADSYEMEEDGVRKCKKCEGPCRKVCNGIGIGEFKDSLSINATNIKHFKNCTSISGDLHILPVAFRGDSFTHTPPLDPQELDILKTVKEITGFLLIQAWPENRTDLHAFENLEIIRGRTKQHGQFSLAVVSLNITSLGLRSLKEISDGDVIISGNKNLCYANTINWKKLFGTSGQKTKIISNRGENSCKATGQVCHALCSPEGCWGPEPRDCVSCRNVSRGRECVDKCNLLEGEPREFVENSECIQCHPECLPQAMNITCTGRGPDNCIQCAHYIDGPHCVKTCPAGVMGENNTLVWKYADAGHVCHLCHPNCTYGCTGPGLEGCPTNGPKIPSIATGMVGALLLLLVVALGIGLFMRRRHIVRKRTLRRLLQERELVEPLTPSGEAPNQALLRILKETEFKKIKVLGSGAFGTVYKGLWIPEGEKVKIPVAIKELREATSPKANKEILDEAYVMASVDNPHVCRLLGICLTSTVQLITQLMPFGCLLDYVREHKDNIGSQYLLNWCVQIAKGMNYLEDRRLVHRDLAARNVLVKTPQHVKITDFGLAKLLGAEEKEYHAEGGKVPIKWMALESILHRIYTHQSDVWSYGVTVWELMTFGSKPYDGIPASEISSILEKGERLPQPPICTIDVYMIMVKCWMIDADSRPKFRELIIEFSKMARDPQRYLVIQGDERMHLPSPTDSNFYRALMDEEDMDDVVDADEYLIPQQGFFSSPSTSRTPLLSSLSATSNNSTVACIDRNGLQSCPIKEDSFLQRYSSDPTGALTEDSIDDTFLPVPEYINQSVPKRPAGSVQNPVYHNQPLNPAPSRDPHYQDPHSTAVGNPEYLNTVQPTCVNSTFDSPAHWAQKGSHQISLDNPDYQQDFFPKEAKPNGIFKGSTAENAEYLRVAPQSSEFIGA
Protocol: as §1
For series [11], the target named is VEGFR-2 (Homo sapiens (Human), UniProt P35968). Nature of the series: VEGFR-2 kinase inhibition, phosphotyrosine ELISA cytoblot. The format is cell-based. The conditions noted are these: U251 cells, phosphotyrosine ELISA.
Chain of VEGFR-2 (P35968 20-1356): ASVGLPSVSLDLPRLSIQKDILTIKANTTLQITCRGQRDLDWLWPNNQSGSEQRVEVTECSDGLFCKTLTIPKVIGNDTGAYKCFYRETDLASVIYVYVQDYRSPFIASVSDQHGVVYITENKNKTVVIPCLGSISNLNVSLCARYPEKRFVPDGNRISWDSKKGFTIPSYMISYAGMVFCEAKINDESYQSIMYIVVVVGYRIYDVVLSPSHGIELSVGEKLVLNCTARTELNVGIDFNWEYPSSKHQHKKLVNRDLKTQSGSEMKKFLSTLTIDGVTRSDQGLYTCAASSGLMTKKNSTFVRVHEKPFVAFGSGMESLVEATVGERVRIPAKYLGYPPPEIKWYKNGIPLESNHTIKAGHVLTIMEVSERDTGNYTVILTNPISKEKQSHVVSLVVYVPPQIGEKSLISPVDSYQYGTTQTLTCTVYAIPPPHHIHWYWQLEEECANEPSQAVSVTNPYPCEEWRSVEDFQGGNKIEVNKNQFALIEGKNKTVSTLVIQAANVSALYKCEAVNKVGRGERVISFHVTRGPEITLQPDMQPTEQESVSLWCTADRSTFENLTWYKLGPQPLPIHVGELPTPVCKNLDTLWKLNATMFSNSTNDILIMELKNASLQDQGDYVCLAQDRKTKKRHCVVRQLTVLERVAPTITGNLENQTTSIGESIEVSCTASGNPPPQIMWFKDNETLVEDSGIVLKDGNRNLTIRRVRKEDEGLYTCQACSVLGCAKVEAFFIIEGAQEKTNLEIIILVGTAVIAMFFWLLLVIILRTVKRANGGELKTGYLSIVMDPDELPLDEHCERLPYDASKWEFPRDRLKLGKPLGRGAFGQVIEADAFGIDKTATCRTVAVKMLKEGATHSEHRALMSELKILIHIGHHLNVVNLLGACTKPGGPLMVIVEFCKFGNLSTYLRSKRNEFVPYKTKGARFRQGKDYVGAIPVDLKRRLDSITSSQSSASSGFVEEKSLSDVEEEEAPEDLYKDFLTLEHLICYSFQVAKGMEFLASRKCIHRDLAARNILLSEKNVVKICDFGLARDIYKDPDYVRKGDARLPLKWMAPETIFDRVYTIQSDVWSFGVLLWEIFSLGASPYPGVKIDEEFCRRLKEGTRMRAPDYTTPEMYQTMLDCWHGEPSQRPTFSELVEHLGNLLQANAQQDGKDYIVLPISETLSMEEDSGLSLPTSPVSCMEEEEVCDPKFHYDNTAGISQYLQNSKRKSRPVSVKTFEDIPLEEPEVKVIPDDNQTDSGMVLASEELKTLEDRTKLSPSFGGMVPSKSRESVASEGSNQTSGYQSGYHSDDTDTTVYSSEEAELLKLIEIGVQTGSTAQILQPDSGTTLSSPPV
Protocol: as §1
Series [12] deals with HeLa cells. The series can be described thus: Antiproliferative SRB assay. The conditions noted are these: 48 h, read-out: IC50 ± SD in HeLa. Type of series: cell-based.
The test system of series [13] is colchicine site on tubulin. The series can be described thus: Inhibition of [3H]colchicine binding. The note with it: 5 μM.

Like-named read-outs stand apart in the source and are kept apart here. Some results are limits rather than exact numbers.

What is called EC50 is the concentration at which the effect is half-maximal. Regarding `COc1ccc(N(C)c2nc(C)nc3oc(C)cc23)cc1` [Compound 1, reference compound], the EC50 in series [1] stood at 103 nM. Also, in [2], the IC50 was 2400 ± 10 nM.
For the compound `CCCOc1ccc(N(C)c2nc(C)nc3oc(C)cc23)cc1` [Compound 12, N-2,6-trimethyl-N-(4-propoxyphenyl)furo[2,3-d]pyrimidin-4-amine], the IC50 in [3] worked out at 92.9 ± 10.1 nM; in series [4] it was 30.8 ± 1.7 nM. Besides, the “Rr value (relative resistance)” value in series [4] (M6/6 (Pgp) vs SKOV3) turned out to be 1.3.
As to `COc1ccc2c(ccn2-c2nc(C)nc3oc(C)cc23)c1` [Compound 9, 4-(5-methoxy-1H-indol-1-yl)-2,6-dimethylfuro[2,3-d]pyrimidine], the IC50 in series [3] (Homo sapiens, A-431) is more than 300 nM; in series [5], more than 300000 nM. Moreover, the concentration giving a half-maximal response (EC50) in series [1] (Rattus norvegicus, A10) is more than 10000 nM.
As for `COc1cc(N(C)c2nc(C)nc3oc(C)cc23)cc(OC)c1OC` [Compound 4, N,2,6-trimethyl-N-(3,4,5-trimethoxyphenyl)furo[2,3-d]pyrimidin-4-amine], the IC50 in series [6] is 166 ± 20.2 nM; in series [3] (Homo sapiens, A-431) it was more than 300 nM; in series [5], more than 300000 nM. The EC50 in [1] (Rattus norvegicus, A10) is more than 10000 nM.
For `COc1ccc(N(C)c2nc(C)nc3oc(C)cc23)c(OC)c1` [Compound 2, N-(2,4-dimethoxyphenyl)-N,2,6-trimethylfuro[2,3-d]pyrimidin-4-amine], the IC50 in series [3] (Homo sapiens, A-431) came out at 17.1 ± 2 nM.
As for `CC(=O)O[C@H]1C(=O)[C@@]2(C)[C@H]([C@H](OC(=O)c3ccccc3)[C@]3(O)C[C@H](OC(=O)[C@H](O)[C@@H](NC(=O)c4ccccc4)c4ccccc4)C(C)=C1C3(C)C)[C@]1(OC(C)=O)CO[C@@H]1C[C@@H]2O` [Paclitaxel, reference compound], the IC50 in [7] (MDA435, 48 h) amounted to 3.3 ± 0.3 nM; in [8] (Homo sapiens, HeLa), 32.9 ± 5.8 nM; in [9] (Homo sapiens, SK-OV-3, 48 h) it was 6.3 ± 0.4 nM.
Regarding `CCOc1ccc(N(C)c2nc(C)nc3oc(C)cc23)cc1` [Compound 11, N-(4-ethoxyphenyl)-N,2,6-trimethylfuro[2,3-d]pyrimidin-4-amine], the IC50 worked out at 11.6 ± 2.1 nM in series [3] (Homo sapiens, A-431) and 50100 ± 8200 nM in series [5]. The EC50 in [1] (Rattus norvegicus, A10) is more than 10000 nM.
In the case of `Cc1nc(N(C)c2ccc3c(c2)OCO3)c2cc(C)oc2n1` [Compound 5, N-1,3-benzodioxol-5-yl-N,2,6-trimethylfuro[2,3-d]pyrimidin-4-amine], the IC50 was 298 ± 38.1 nM in [10]; 19.9 ± 2.1 nM in series [11]; 50.1 ± 7.8 nM in [6]; 48.9 ± 5.1 nM in series [3] (Homo sapiens, A-431). In addition, the 50% effective concentration (EC50) in series [1] (Rattus norvegicus, A10) was more than 10000 nM.
Regarding `COc1ccc(N(C)c2nc(C)nc3oc(C)cc23)cc1OC` [Compound 3, N-(3,4-dimethoxyphenyl)-N,2,6-trimethylfuro[2,3-d]pyrimidin-4-amine], the IC50 in series [10] stood at 90.3 ± 10.2 nM; in series [11] it was 18.6 ± 3 nM; in series [6], 66.1 ± 8.1 nM; in [3] (Homo sapiens, A-431), 9.7 ± 1.2 nM. In addition, the “effect on cellular microtubules” value in [1] is given as “dose-dependent loss of cellular microtubules”.
`COc1ccc2c(c1)CCN2c1nc(C)nc2oc(C)cc12` [Compound 8, 4-(5-methoxyindolin-1-yl)-2,6-dimethylfuro[2,3-d]pyrimidine]: the IC50 in [10] was found to be 103 ± 18.2 nM; in series [11], 20.9 ± 3.7 nM; in series [6] it was 73.2 ± 4.9 nM; in series [3] (Homo sapiens, A-431), 42.2 ± 5 nM. In addition, in [1] (Rattus norvegicus, A10), the EC50 is more than 10000 nM. Further, the “effect on cellular microtubules” value in series [1] is recorded as “no effect on cellular microtubules”.
Consider `COc1ccc(/C=C\c2cc(OC)c(OC)c(OC)c2)cc1O` [CA-4, combretastatin A-4, reference compound], for which, in series [1], the 50% effective concentration (EC50) came to 9.8 nM. Further, the IC50 in series [7] (48 h) was found to be 5 ± 0.3 nM; in series [12], 5.6 ± 0.3 nM; in [8], 5.7 ± 0.4 nM; in [9] (48 h), 6.9 ± 0.1 nM; in series [2], 1000 ± 90 nM; in series [4] it was 3 ± 0.3 nM. Also, the “Inhibition of colchicine binding % inhibition ± SD” value in series [13] worked out at 99 ± 0.2%.

(Values after US10189853B2, “Conformationally restricted 4-substituted-2,6-dimethylfuro[2,3-d]pyrimidines as anti-tumor agents” (DUQUESNE UNIVERSITY OF THE HOLY SPIRIT, priority 2014, dated 2019).)
